US10441562B2, “Aromatic farnesyl compound and application thereof” (INSTITUTE OF MICROBIOLOGY, CHINESE ACADEMY OF SCIENCES, priority 2015, dated 2019)
Marks after values point to notes of the source that are not given here.

Columns and labels:
[1] = system: hyperglycemia KK-A^y mice; assay: glucose tolerance test (OGTT) in hyperglycemia KK-A^y mice; type: in vivo; details: OGTT 12th day, glucose 2.0 g/kg oral
Protocol: KK-A^y mice are purchased from Chinese Academy of Medical Sciences & Peking Union Medical College Institute of Animal Studies. Experiments are carried out after adapting to the environment (T=20-24° C., constant humidity: 50-60%, 12 hours light exposure (8:00-20:00), soundproof, free feeding and drinking) for 1 week. Glucometer is purchased from Roche.
Each group has 8 mice, and is administrated successively for 3 weeks. Model control group is given with equal amounts of 0.5% CMC-Na.
3) Glucose tolerance test (OGTT): glucose tolerance is detected at the 12th day after administration. The mice are fasted for 12 hours and blood is collected (0 h). After being given with glucose (2.0 g/kg) by oral administration, blood is collected from tip of tail to detect the blood sugar level after 30 min, 60 min and 120 min respectively (see table 11).

[2] = system: hyperglycemia KK-A^y mice; assay: liver tissue section of hyperglycemia KK-A^y mice (HE); type: in vivo; details: FIG. 1, 10 and 20 mg/kg
Protocol: Detect the fasting glucose of male KK-A^y mice, which are 6-8 weeks with the weight of 28-32 g, and divide them into different groups according to the blood sugar level and body weight: (2) model control group, (3) which is administered by compound S13 with the dose of 1 mg/kg, (4) which is administered by compound S13 with the dose of 5 mg/kg, (5) which is administered by compound S13 with the dose of 10 mg/kg, (6) which is administered by compound S13 with the dose of 20 mg/kg, (7) which is administered by compound S28 with the dose of 1 mg/kg, (8) which is administered by compound S28 with the dose of 5 mg/kg, (9) which is administered by compound S28 with the dose of 10 mg/kg, (10) which is administered by compound S28 with the dose of 20 mg/kg, (11) which is administered by metformin with the dose of 8 g/kg, (12) which is administered by compound S13 with the dose of 2.5 mg/kg and metformin with the dose of 4 g/kg, (13) which is administered by compound S13 with the dose of 5 mg/kg and metformin with the dose of 4 g/kg, (14) which is administered by compound S28 with the dose of 2.5 mg/kg and metformin with the dose of […], (15) which is administered by compound S28 with the dose of 5 mg/kg and metformin with the dose of […]. Each group has 8 mice, and is administrated successively for 3 weeks. Model control group is given with equal amounts of 0.5% CMC-Na. […]

[3] = target: T1, protein tyrosine phosphatase 1B (PTP-1B) (Homo sapiens, UniProt P18031); assay: PTP-1B inhibitory activity test in vitro; type: biochemical
T1 sequence (P18031 1-435): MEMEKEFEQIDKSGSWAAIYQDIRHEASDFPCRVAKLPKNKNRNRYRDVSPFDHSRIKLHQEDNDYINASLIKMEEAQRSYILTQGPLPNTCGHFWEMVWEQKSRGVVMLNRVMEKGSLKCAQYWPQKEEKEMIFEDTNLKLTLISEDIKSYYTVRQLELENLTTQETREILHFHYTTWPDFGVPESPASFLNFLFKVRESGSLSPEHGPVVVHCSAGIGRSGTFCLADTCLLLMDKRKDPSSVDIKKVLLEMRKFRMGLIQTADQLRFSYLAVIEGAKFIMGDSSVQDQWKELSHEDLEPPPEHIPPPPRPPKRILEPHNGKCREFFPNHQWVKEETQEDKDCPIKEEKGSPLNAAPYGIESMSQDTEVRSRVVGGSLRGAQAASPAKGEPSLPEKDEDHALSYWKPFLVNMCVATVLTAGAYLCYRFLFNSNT
Method in brief: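 Compound was preincubated 10 min at room temperature with 170 μg/mL PTP-1B solution, then 1 mM pNPP substrate was added and incubated 37 °C for 30 min. Reaction stopped with 3M NaOH; absorbance read at […], with blank and compound-background controls.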

[4] = system: normal mice; assay: blood sugar of normal mice; type: in vivo, Kunming species mice; details: 50 mg/kg intragastric, 10 days, fasted 10 hours
Protocol: Blood glucose determination kit (batch number 20140403) is purchased from Nanjing Jiancheng Bioengineering Institute.
Methods: after being acclimatized for 1 week, the 20±2 g Kunming species mice are randomly divided into 3 groups of 12 animals in each. 10 mg/ml extract solution of 0.1 ml (which corresponds to 50 mg/kg) is given to different groups of mice by intragastric administration for 10 days successively, and the control group is given with equal amounts of saline. After the last administration, the mice are fasted for 10 hours and blood is collected from orbit, then detect the blood sugar by blood glucose determination kit.

**Q.** `CC(C)=CCC/C(C)=C/CCC1=C[C@@H](c2cc(O)ccc2O)OC1=O` [S28, (S,E)-5-(2,5-dihydroxyphenyl)-3-(4,8-dimethylnona-3,7-dien-1-yl)furan-2(5H)-one] was tested. Which “glucose tolerance, blood sugar 0 min” value ([1]; 1 mg/kg, groups 3, 7) did it give?
**A.** The value was 9.5.

**Q.** And the “glucose tolerance, blood sugar 0 min” value ([1]; 5 mg/kg, groups 4, 8)?
**A.** The value was 6.8**.

**Q.** And the “glucose tolerance, blood sugar 0 min” value ([1]; 10 mg/kg, groups 5, 9)?
**A.** The value was 7.6*.

**Q.** And the “glucose tolerance, blood sugar 0 min” value ([1]; 20 mg/kg, groups 6, 10)?
**A.** The value was 6.9**.

**Q.** And the “glucose tolerance, blood sugar 30 min” value ([1]; 1 mg/kg, groups 3, 7)?
**A.** The value was 11.3**.

**Q.** What about the “glucose tolerance, blood sugar 30 min” value ([1]; 5 mg/kg, groups 4, 8) of the same compound?
**A.** The value was 9.3**.

**Q.** And the “glucose tolerance, blood sugar 30 min” value ([1]; 10 mg/kg, groups 5, 9)?
**A.** The value was 16.9**.

**Q.** What about the “glucose tolerance, blood sugar 30 min” value ([1]; 20 mg/kg, groups 6, 10) of the same compound?
**A.** The value was 14.3**.

**Q.** And the “glucose tolerance, blood sugar 60 min” value ([1]; 1 mg/kg, groups 3, 7)?
**A.** The value was 10.5**.

**Q.** What about the “glucose tolerance, blood sugar 60 min” value ([1]; 5 mg/kg, groups 4, 8) of the same compound?
**A.** Its value is 9.3**.

**Q.** And the “glucose tolerance, blood sugar 60 min” value ([1]; 10 mg/kg, groups 5, 9)?
**A.** The value was 13.2**.

**Q.** What about the “glucose tolerance, blood sugar 60 min” value ([1]; 20 mg/kg, groups 6, 10) of the same compound?
**A.** The value was 12.4**.

**Q.** What about the “glucose tolerance, blood sugar 120 min” value ([1]; 1 mg/kg, groups 3, 7) of the same compound?
**A.** Its value is 8.3**.

**Q.** What about the “glucose tolerance, blood sugar 120 min” value ([1]; 5 mg/kg, groups 4, 8) of the same compound?
**A.** The value was 5.1**.

**Q.** What about the “glucose tolerance, blood sugar 120 min” value ([1]; 10 mg/kg, groups 5, 9) of the same compound?
**A.** Its value is 10.9**.

**Q.** And the “glucose tolerance, blood sugar 120 min” value ([1]; 20 mg/kg, groups 6, 10)?
**A.** Its value is 11.9**.

**Q.** What about the “fat vacuole in hepatocyte (liver tissue section, HE)” value [2] of the same compound?
**A.** The value was “almost disappear”.

**Q.** What about the IC50 [3] of the same compound?
**A.** Its IC50 is 9.5 µM.

**Q.** And the blood sugar [4]?
**A.** Its blood sugar is 4.02 mmol/L.

**Q.** For `CC(C)=CCC/C(C)=C/CCC1=C[C@H](c2cc(O)ccc2O)OC1=O` [S13, (R,E)-5-(2,5-dihydroxyphenyl)-3-(4,8-dimethylnona-3,7-dien-1-yl)furan-2(5H)-one], which “glucose tolerance, blood sugar 0 min” value ([1]; 1 mg/kg, groups 3, 7) is on record?
**A.** The value was 9.6.

**Q.** And the “glucose tolerance, blood sugar 0 min” value ([1]; 5 mg/kg, groups 4, 8)?
**A.** The value was 6.9*.

**Q.** What about the “glucose tolerance, blood sugar 0 min” value ([1]; 10 mg/kg, groups 5, 9) of the same compound?
**A.** Its value is 7.96.

**Q.** And the “glucose tolerance, blood sugar 0 min” value ([1]; 20 mg/kg, groups 6, 10)?
**A.** The value was 6.90*.

**Q.** And the “glucose tolerance, blood sugar 30 min” value ([1]; 1 mg/kg, groups 3, 7)?
**A.** Its value is 12.5**.

**Q.** What about the “glucose tolerance, blood sugar 30 min” value ([1]; 5 mg/kg, groups 4, 8) of the same compound?
**A.** Its value is 9.1**.

**Q.** What about the “glucose tolerance, blood sugar 30 min” value ([1]; 10 mg/kg, groups 5, 9) of the same compound?
**A.** Its value is 16.95**.

**Q.** What about the “glucose tolerance, blood sugar 30 min” value ([1]; 20 mg/kg, groups 6, 10) of the same compound?
**A.** The value was 14.00**.

**Q.** What about the “glucose tolerance, blood sugar 60 min” value ([1]; 1 mg/kg, groups 3, 7) of the same compound?
**A.** Its value is 10.2**.

**Q.** And the “glucose tolerance, blood sugar 60 min” value ([1]; 5 mg/kg, groups 4, 8)?
**A.** The value was 9.1**.

**Q.** And the “glucose tolerance, blood sugar 60 min” value ([1]; 10 mg/kg, groups 5, 9)?
**A.** Its value is 13.20**.

**Q.** What about the “glucose tolerance, blood sugar 60 min” value ([1]; 20 mg/kg, groups 6, 10) of the same compound?
**A.** Its value is 12.45**.

**Q.** And the “glucose tolerance, blood sugar 120 min” value ([1]; 1 mg/kg, groups 3, 7)?
**A.** The value was 8.2**.

**Q.** And the “glucose tolerance, blood sugar 120 min” value ([1]; 5 mg/kg, groups 4, 8)?
**A.** The value was 5.2**.

**Q.** What about the “glucose tolerance, blood sugar 120 min” value ([1]; 10 mg/kg, groups 5, 9) of the same compound?
**A.** The value was 10.93**.

**Q.** And the “glucose tolerance, blood sugar 120 min” value ([1]; 20 mg/kg, groups 6, 10)?
**A.** Its value is 11.90**.

**Q.** What about the “fat vacuole in hepatocyte (liver tissue section, HE)” value [2] of the same compound?
**A.** The value was “almost disappear”.

**Q.** And the IC50 [3]?
**A.** The IC50 was 8.9 µM.

**Q.** What about the blood sugar [4] of the same compound?
**A.** Its blood sugar is 4.21 mmol/L.
